Test results published in US10370727B2, “Point mutations in TRK inhibitor-resistant cancer and methods relating to the same” (Loxo Oncology, Inc., priority 2015, dated 2019).

Legend:
Experiment in all cases: Trk enzyme assay ([33P] incorporation into poly-EAY)
Type in all cases: biochemical
[1] = target: TrkC F617L (Homo sapiens, UniProt Q16288, F617L/S70N); settings: mutant TrkC F617L enzyme; 22° C., 60 minutes
Description: (§1) The assays were conducted in 96-well polypropylene v-bottom microtitre plates (Corning, Costar® 3363) in a total volume of 50 μL. […] The radiolabeled product was then captured on glass fiber filter plates (PerkinElmer, Unifilter®-96, GF/B®) and washed with 5% phosphoric acid to remove unbound radiolabel using a Tomtec MACH III Harvester 96®. After adding 35 μL/well of Bio-Safe II™ liquid scintillation cocktail (Research Products International), the plates were counted in a TopCount NXT (PerkinElmer) using a counting time of 30 s/well. The activity at each concentration of compound was expressed as percent of control (POC) and plotted versus compound concentration.

[2] = target: TrkB G623R (Homo sapiens, UniProt Q16620, G623R); settings: mutant TrkB G623R enzyme; 22° C., 60 minutes
Sequence of TrkB G623R (Q16620 32-822 G623R): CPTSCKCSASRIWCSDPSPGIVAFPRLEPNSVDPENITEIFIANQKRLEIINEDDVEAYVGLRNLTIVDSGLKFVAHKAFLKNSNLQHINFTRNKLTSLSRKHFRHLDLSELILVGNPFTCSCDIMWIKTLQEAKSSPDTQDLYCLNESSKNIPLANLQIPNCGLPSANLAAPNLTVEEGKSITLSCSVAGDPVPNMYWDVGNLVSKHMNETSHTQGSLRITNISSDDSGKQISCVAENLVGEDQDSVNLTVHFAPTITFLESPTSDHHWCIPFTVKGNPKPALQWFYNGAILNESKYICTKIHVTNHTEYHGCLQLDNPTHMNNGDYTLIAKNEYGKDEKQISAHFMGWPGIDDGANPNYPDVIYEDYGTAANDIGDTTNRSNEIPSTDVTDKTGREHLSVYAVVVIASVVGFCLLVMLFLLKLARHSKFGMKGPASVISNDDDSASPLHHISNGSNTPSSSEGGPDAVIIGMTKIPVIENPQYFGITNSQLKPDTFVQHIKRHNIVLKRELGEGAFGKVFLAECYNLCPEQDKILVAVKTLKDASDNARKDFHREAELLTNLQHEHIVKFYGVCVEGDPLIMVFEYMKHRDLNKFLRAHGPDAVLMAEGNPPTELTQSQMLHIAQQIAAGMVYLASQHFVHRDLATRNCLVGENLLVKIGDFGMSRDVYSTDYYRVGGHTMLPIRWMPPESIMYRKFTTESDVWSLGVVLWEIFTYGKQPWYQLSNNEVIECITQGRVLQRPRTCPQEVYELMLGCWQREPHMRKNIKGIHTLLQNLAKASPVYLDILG
Description: as §1

[3] = target: TrkC WT (Homo sapiens, UniProt Q16288, S70N); settings: wild-type TrkC enzyme; 22° C., 60 minutes
Sequence of TrkC WT (Q16288 32-839 S70N): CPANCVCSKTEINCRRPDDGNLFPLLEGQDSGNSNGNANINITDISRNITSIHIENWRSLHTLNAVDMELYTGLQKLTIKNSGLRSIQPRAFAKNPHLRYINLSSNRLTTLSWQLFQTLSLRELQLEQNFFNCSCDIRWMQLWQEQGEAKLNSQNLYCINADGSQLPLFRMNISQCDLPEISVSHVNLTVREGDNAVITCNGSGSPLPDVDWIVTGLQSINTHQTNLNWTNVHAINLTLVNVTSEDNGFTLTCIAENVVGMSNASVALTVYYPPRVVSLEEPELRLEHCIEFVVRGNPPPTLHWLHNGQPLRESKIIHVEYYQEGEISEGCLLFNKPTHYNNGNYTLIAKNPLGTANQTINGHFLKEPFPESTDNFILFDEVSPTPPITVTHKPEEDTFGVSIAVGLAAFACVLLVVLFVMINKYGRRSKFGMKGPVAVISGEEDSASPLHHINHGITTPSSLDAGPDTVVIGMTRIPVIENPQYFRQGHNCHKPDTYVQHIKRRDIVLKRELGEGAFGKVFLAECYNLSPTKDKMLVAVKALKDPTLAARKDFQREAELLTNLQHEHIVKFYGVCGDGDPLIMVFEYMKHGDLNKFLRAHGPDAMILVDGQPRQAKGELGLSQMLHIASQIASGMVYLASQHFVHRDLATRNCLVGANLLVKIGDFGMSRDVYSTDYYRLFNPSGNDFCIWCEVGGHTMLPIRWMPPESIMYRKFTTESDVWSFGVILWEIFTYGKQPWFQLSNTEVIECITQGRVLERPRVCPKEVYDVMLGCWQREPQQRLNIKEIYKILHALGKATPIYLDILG
Description: as §1

[4] = target: TrkB WT (Homo sapiens, UniProt Q16620); settings: wild-type TrkB enzyme; 22° C., 60 minutes
Sequence of TrkB WT (Q16620 32-822): as the sequence (Q16620 32-822 G623R) above, with R592G counted along it
Description: as §1

[5] = target: TrkC G623R (Homo sapiens, UniProt Q16288, G623R/S70N); settings: mutant TrkC G623R enzyme; 22° C., 60 minutes
Sequence of TrkC G623R (Q16288 32-839 S70N/G623R): as the sequence (Q16288 32-839 S70N) above, with G592R counted along it
Description: The radiolabeled product was then captured on glass fiber filter plates (PerkinElmer, Unifilter®-96, GF/B®) and washed with 5% phosphoric acid to remove unbound radiolabel using a Tomtec MACH III Harvester 96®. After adding 35 μL/well of Bio-Safe II™ liquid scintillation cocktail (Research Products International), the plates were counted in a TopCount NXT (PerkinElmer) using a counting time of 30 s/well. The activity at each concentration of compound was expressed as percent of control (POC) and plotted versus compound concentration.

[6] = target: TrkA V573M (Homo sapiens, UniProt P04629, V573M); settings: mutant TrkA V573M enzyme; 22° C., 60 minutes
Sequence of TrkA V573M (P04629 33-796 V573M): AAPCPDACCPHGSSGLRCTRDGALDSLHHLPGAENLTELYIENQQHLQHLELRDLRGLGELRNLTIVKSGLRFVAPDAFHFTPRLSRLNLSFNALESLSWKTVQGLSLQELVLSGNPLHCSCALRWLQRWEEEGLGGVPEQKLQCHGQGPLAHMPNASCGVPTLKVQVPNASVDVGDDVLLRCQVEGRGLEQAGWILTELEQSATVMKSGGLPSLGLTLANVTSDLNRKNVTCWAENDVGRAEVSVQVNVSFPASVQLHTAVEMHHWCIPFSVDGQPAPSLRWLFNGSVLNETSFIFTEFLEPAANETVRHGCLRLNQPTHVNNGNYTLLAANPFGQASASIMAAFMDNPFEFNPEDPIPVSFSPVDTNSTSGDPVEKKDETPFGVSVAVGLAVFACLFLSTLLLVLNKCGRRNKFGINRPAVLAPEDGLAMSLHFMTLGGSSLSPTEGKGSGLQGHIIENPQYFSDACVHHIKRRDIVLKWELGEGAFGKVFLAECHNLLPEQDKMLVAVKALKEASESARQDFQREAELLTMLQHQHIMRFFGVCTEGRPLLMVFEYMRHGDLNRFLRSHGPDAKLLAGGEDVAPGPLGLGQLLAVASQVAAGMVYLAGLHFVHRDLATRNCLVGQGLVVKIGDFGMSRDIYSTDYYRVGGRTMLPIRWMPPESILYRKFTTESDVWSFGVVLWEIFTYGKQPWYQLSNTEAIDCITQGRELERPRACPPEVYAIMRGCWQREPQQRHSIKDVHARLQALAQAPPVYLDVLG
Description: (§2) The activity of the various Trk compounds exemplified in Table 6 was determined by monitoring the incorporation of [^33P]PO4 from [γ-^33P]ATP into poly-EAY (Sigma-Aldrich, P3899).
as §1

[7] = target: TrkA F589L (Homo sapiens, UniProt P04629, F589L); settings: mutant TrkA F589L enzyme; 22° C., 60 minutes
Sequence of TrkA F589L (P04629 33-796 F589L): as the sequence (P04629 33-796 V573M) above, with M541V, F557L counted along it
Description: as §2, §1

[8] = target: TrkA G667S (Homo sapiens, UniProt P04629, G667S); settings: mutant TrkA G667S enzyme; 22° C., 60 minutes
Sequence of TrkA G667S (P04629 33-796 G667S): as the sequence (P04629 33-796 V573M) above, with M541V, G635S counted along it
Description: as §2, §1

[9] = target: TrkA WT (Homo sapiens, UniProt P04629); settings: wild-type TrkA enzyme; 22° C., 60 minutes
Sequence of TrkA WT (P04629 33-796): as the sequence (P04629 33-796 V573M) above, with M541V counted along it
Description: as §1

[10] = target: TrkA G595R (Homo sapiens, UniProt P04629, G595R); settings: mutant TrkA G595R enzyme; 22° C., 60 minutes
Sequence of TrkA G595R (P04629 33-796 G595R): as the sequence (P04629 33-796 V573M) above, with M541V, G563R counted along it
Description: as §2, §1

[11] = target: TrkA G667C (Homo sapiens, UniProt P04629, G667C); settings: mutant TrkA G667C enzyme; 22° C., 60 minutes
Sequence of TrkA G667C (P04629 33-796 G667C): as the sequence (P04629 33-796 V573M) above, with M541V, G635C counted along it
Description: as §2, §1

Sequence of TrkC F617L (Q16288 32-839 S70N/F617L): as the sequence (Q16288 32-839 S70N) above, with F586L counted along it

IC50 [1] [nM]	IC50 [2] [nM]	IC50 [3] [nM]	IC50 [4] [nM]	IC50 [5] [nM]	IC50 [6] [nM]	IC50 [7] [nM]	IC50 [8] [nM]	IC50 [9] [nM]	IC50 [10] [nM]	IC50 [11] [nM]	Compound
< 5	0.9	< 2.5	2.9	1.3	< 5	< 1	0.4	< 0.5	0.9	1.1	O=C1NCCCOc2ncc(F)cc2[C@H]2CCCN2c2ccn3ncc1c3n2 [Compound 16, (6R)-9-fluoro-13-oxa-2,11,17,21,22,25-hexaazapentacyclo[17.5.2.0^2,6.0^7,12.0^22,26]-hexacosa-1(25),7,9,11,19(26),20,23-heptaen-18-one]
5.4	1.3	< 2.5	2.9	1.5	< 5	8.4	0.9	0.5	1.5	5.7	O=C1OCCOc2ncc(F)cc2[C@H]2CCCN2c2ccn3ncc1c3n2 [Compound 22, (6R)-9-fluoro-13,16-dioxa-2,11,20,21,24-pentaazapentacyclo[16.5.2.0^2,6.0^7,12.0^21,25]-pentacosa-1(24),7,9,11,18(25),19,22-heptaen-17-one]
8.7	2.7	< 2.5	3.5	3.1	20.9	37.2	4.1	< 0.5	3.3	32.4	O=C(NC1CC1)c1cnn2ccc(N3CCC[C@@H]3c3cncc(F)c3)nc12 [Compound 13, (R)-N-cyclopropyl-5-(2-(5-fluoro-pyridin-3-yl)pyrrolidin-1-yl)pyrazolo [1,5-a]pyrimidine-3-carboxamide]
12.4	1.5	< 2.5	4.4	2.7	12.1	14.8	2.8	< 0.5	1.5	9	CONC(=O)c1cnn2ccc(N3CCC[C@@H]3c3cc(F)cnc3OC)nc12 [Compound 14, (R)-5-(2-(5-fluoro-2-methoxypyridin-3-yl)pyrrolidin-1-yl)-N-methoxy-pyrazolo[1,5-a]pyrimidine-3-carboxamide]
61.9	4.2	< 2.5	4.7	4.5	38.3	86.8	4.7	0.5	3.3	22.3	C[C@H]1CNC(=O)c2cnn3ccc(nc23)N2CCC[C@@H]2c2cc(F)cn(c2=O)C1 [Compound 24, (6R,13S)-9-fluoro-13-methyl-2,11,15, 19,20,23-hexaazapentacyclo [15.5.2.^17,11.0^2,6.0^20,24]pentacosa-1(23),7,9,17(24),18,21-hexaene-16,25-dione]
9.9	1.3	< 2.5	3.3	1.6	14.9	21	3.6	< 0.5	1	15.6	NC(=O)c1cnn2ccc(N3CCC[C@@H]3c3cc(F)ccc3F)nc12 [Compound 12, (R)-5-(2-(2,5-difluorophenyl)pyrrolidin-1-yl)pyrazolo[1,5-a]pyrimidine-3-carboxamide]
18.3	3.1	< 2.5	3.1	3.1	36.5	48.3	3.2	< 0.5	2.7	13.3	O=C1NCCCOc2cccc(n2)[C@H]2CCCN2c2ccn3ncc1c3n2 [Compound 20, (6R)-12-oxa-2,16,20,21,24,26-hexaazapentacyclo[16.5.2.^17,11.0^2,6.0^21,25]-hexacosa-1(24),7(26),8,10,18(25),19,22-heptaen-17-one]
8.1	2.3	4	8.7	4.7	< 5	1.1	0.5	1	3	1	CC1(C)CNC(=O)c2cnn3ccc(nc23)N2CCC[C@@H]2c2cc(F)cnc2OC1 [Compound 25, (6R)-9-fluoro-15,15-dimethyl-13-oxa-2,11,17,21,22,25-hexaazapentacyclo [17,5.2.0^2,6.0^7,12.0^22,26]hexacosa-1(25),7,9,11,19(26),20,23-heptaen-18-one]

Second part, the compound before the results:

Compound	IC50 [1] [nM]	IC50 [2] [nM]	IC50 [3] [nM]	IC50 [4] [nM]	IC50 [5] [nM]	IC50 [6] [nM]	IC50 [7] [nM]	IC50 [8] [nM]	IC50 [9] [nM]	IC50 [10] [nM]	IC50 [11] [nM]
O=C(Nc1cnc2ccc(N3CCC[C@@H]3c3cc(F)ccc3F)nn12)N1CC(O)C1 [Compound 1, (R)-N-(6-(2-(2,5-difluorophenyl)pyrrolidin-1-yl)imidazo[1,2-b]pyridazin-3-yl)-3-hydroxyazetidine-1-carboxamide]	58	59.7	< 2.5	5.7	29.3						
NC(=O)Nc1cnc2ccc(N3CCC[C@@H]3c3cc(F)ccc3F)nn12 [Compound 3, (R)-1-(6-(2-(2,5-difluorophenyl)pyrrolidin-1-yl)imidazo[1,2-b]pyridazin-3-yl)urea]	273	90	4.5	11.9	55.7						
CN(CCO)C(=O)Nc1cnc2ccc(N3CCC[C@@H]3c3cc(F)ccc3F)nn12 [Compound 6, (R)-3-(6-(2-(2,5-difluorophenyl)pyrrolidin-1-yl)imidazo[1,2-b]pyridazin-3-yl)-1-(2-hydroxyethyl)-1-methylurea]	49.7	27.5	< 2.5	5	24.1						
CNC(=O)Nc1cnc2ccc(N3CCC[C@@H]3c3cc(F)ccc3F)nn12 [Compound 4, (R)-1-(6-(2-(2,5-difluorophenyl)pyrrolidin-1-yl)imidazo[1,2-b]pyridazin-3-yl)-3-methylurea]	177	132	3.1	10.6	70.8						
CC1(NC(=O)c2cnn3ccc(N4CCC[C@@H]4c4cncc(F)c4)nc23)CC1 [Compound 15, (R)-5-(2-(5-fluoropyridin-3-yl)pyrrolidin-1-yl)-N-(1-methylcyclopropyl)pyrazolo [1,5-a]pyrimidine-3-carboxamide]	< 5	1.6	< 2.5	< 2.5	1.7	6.3	7.3	1.4	< 0.5	1.6	8.1
O=C1NC[C@H](O)COc2ccc(F)cc2[C@H]2CC(F)(F)CN2c2ccn3ncc1c3n2 [Compound 26, (15S)-4,4,9-trifluoro-15-hydroxy-13-oxa-2,17,21,22.25-pentaazapentacyclo [17.5.2.0^2,6.0^7,12.0^22,26]hexacosa-1(25),7(12),8,10,19(26),20,23-heptaen-18-one]	9.6	1.8	< 2.5	3.3	2.6	< 5	3.9	0.5	0.6	2.1	1
O=C(Nc1cnn2ccc(N3CCC[C@@H]3c3cc(F)ccc3F)nc12)N1CC(O)C1 [Compound 5, (R)-N-(5-(2-(2,5-difluorophenyl)pyrrolidin-1-yl)pyrazolo[1,5-a]pyrimidin-3-yl)-3-hydroxyazetidine-1-carboxamide]	154	132	< 2.5	5.9	95	152	232	38.5	1.1	84.6	141
CC1(O)CN(C(=O)Nc2cnc3ccc(N4CCC[C@@H]4c4cc(F)ccc4F)nn23)C1 [Compound 7, (R)-N-(6-(2-(2,5-difluorophenyl)pyrrolidin-1-yl)imidazo[1,2-b]pyridazin-3-yl)-3-hydroxy-3-methylazetidine-1-carboxamide]	42.5	47.9	< 2.5	7	22.7						
CN(C)C(=O)Nc1cnc2ccc(N3CCC[C@@H]3c3cc(F)ccc3F)nn12 [Compound 2, (R)-3-(6-(2-(2,5-difluorophenyl)pyrrolidin-1-yl)imidazo[1,2-b]pyridazin-3-yl)-1,1-dimethylurea]	37.6	34.1	< 2.5	4.5	23.1						
